Assay results published in US10786451B2, “Process for preparing a dry powder formulation comprising an anticholinergic, a corticosteroid and a beta-adrenergic” (CHIESI FARMACEUTICI S.P.A., priority 2015, dated 2020).

How the values were obtained:
[1] = Particle size (volume diameter) by laser diffraction, Malvern apparatus; format: physicochemical; conditions: micronized material as used
Method: The size of the particles active is determined by measuring the characteristic equivalent sphere diameter, known as volume diameter, by laser diffraction. In the reported examples, the volume diameter has been determined using a Malvern apparatus. However, other equivalent apparatus may be used by the skilled person in the art.

[2] = Aerosol performance by Next Generation Impactor (NGI) from multidose dry powder inhaler; format: physicochemical
Source text: With the term “mid FPF” is defined as the fraction of delivered dose having a particle size comprised between […].
After aerosolization of 3 doses from the inhaler device, the NGI apparatus was disassembled and the amounts of drug deposited in the stages were recovered by washing with a solvent mixture and then quantified by High-Performance Liquid Chromatography (HPLC)

[3] = Uniformity of distribution of the active ingredients in the blend (12 samples, HPLC); format: physicochemical
Method: In the context of the present application the flow properties were tested by measuring the flow rate through an orifice according to the method described in the European Pharmacopeia (Eur. Ph.) 8.6, 8th Edition, which is incorporated herein by reference in its entirety. […] It is usually determined according to known methods, for instance by taking samples from different parts of the powder and testing the component by HPLC or other equivalent analytical methods. The uniformity of distribution of the active ingredients was evaluated by withdrawing 12 samples from different parts of the blend and evaluated by HPLC.

[4] = formulations disclosed Table 3 of WO 2015/004243; cited from earlier work
[5] = Batch CY (Cyclomix), reference formulation per WO 2015/004243
[6] = Batch MF (mechano-fusion), reference formulation per WO 2015/004243
[7] = powder formulation of Example 2
[8] = powder formulation of Example 2, NGI, 3 doses
[9] = powder formulation of Example 2, between 2.0 and 5.0 micron
[10] = powder formulation of Example 2, particle size equal to or lower than 5.0 micron
[11] = powder formulation of Example 3
[12] = powder formulation of Example 3, NGI
[13] = powder formulation of Example 3, between 2.0 and 5.0 micron
[14] = powder formulation of Example 3, particle size equal to or lower than 5.0 micron

CCC(=O)OCC(=O)[C@@]1(OC(=O)CC)[C@@H](C)C[C@H]2[C@@H]3CCC4=CC(=O)C=C[C@]4(C)[C@@]3(Cl)[C@@H](O)C[C@@]21C [BDP, beclometasone dipropionate]
particle size d(v0.1) [1]: 0.7 micron
particle size d(v0.5) [1]: 1.5 micron
particle size d(v0.9) [1]: 2.8 micron
Delivered Dose [2, 5]: 90.6 µg
Extrafine Particle Fraction <2 μm [2, 5]: 53.9%
Extrafine Particle Mass <2 μm [2, 5]: 48.8 µg
Fine Particle Fraction [2, 5]: 71.2%
Fine Particle Mass [2, 5]: 64.5 µg
MMAD [2, 5]: 1.08 μm
Mid Fine Particle Mass [2, 5]: 15.7 µg
Mid Fine particle Fraction [2, 5]: 17.3%
Delivered Dose [2, 6]: 95.7 µg
Extrafine Particle Fraction <2 μm [2, 6]: 52.2%
Extrafine Particle Mass <2 μm [2, 6]: 50.0 µg
Fine Particle Fraction [2, 6]: 69.9%
Fine Particle Mass [2, 6]: 66.9 µg
MMAD [2, 6]: 1.13 μm
Mid Fine Particle Mass [2, 6]: 16.9 µg
Mid Fine particle Fraction [2, 6]: 17.7%
Extrafine Particle Fraction <1 μm [2, 7]: 28.7%
Extrafine Particle Fraction <2 μm [2, 7]: 51.4%
Extrafine Particle Mass <1 μm [2, 7]: 27.9 µg
Extrafine Particle Mass <2 μm [2, 7]: 50 µg
Fine Particle Fraction [2, 7]: 69.4%
MMAD [2, 7]: 1.25 μm
Delivered Dose [2, 8]: 97.4 µg
Mid Fine Particle Mass [2, 9]: 17.6 µg
Mid Fine particle Fraction [2, 9]: 18%
Fine Particle Mass [2, 10]: 67.6 µg
Extrafine Particle Fraction <1 μm [2, 11]: 16.2%
Extrafine Particle Fraction <2 μm [2, 11]: 40.3%
Extrafine Particle Mass <1 μm [2, 11]: 13.1 µg
Extrafine Particle Mass <2 μm [2, 11]: 32.7 µg
Fine Particle Fraction [2, 11]: 61.8%
MMAD [2, 11]: 1.62 μm
Delivered Dose [2, 12]: 80.9 µg
Mid Fine Particle Mass [2, 13]: 17.3 µg
Mid Fine particle Fraction [2, 13]: 21.4%
Fine Particle Mass [2, 14]: 50.0 µg
Uniformity of distribution ([3]; powder formulation of Example 2 (6 μg FF, 100 μg BDP, 12.5 μg GB per 10 mg carrier), mean value, RSD in next column): 101.8
Uniformity of distribution ([3]; powder formulation of Example 3 (6 μg FF, 100 μg BDP, 25 μg GB per 10 mg carrier)): 100.2

C[N+]1(C)CCC(OC(=O)C(O)(c2ccccc2)C2CCCC2)C1 (centres unmarked) [GB, Glycopyrronium bromide]
particle size d(v0.1) [1]: 0.39 micron
particle size d(v0.5) [1]: 1.91 micron
particle size d(v0.9) [1]: 4.77 micron
mid FPF [4]: about 20%
Delivered Dose [2, 5]: 11.6 µg
Extrafine Particle Fraction <2 μm [2, 5]: 34.5%
Extrafine Particle Mass <2 μm [2, 5]: 4.0 µg
Fine Particle Fraction [2, 5]: 53.8%
Fine Particle Mass [2, 5]: 6.6 µg
MMAD [2, 5]: 1.78 μm
Mid Fine Particle Mass [2, 5]: 2.6 µg
Mid Fine particle Fraction [2, 5]: 22.4%
Delivered Dose [2, 6]: 11.9 µg
Extrafine Particle Fraction <2 μm [2, 6]: 33.6%
Extrafine Particle Mass <2 μm [2, 6]: 4.0 µg
Fine Particle Fraction [2, 6]: 57.2%
Fine Particle Mass [2, 6]: 6.4 µg
MMAD [2, 6]: 1.75 μm
Mid Fine Particle Mass [2, 6]: 2.5 µg
Mid Fine particle Fraction [2, 6]: 21.0%
Extrafine Particle Fraction <1 μm [2, 7]: 15.4%
Extrafine Particle Fraction <2 μm [2, 7]: 37.6%
Extrafine Particle Mass <1 μm [2, 7]: 1.8 µg
Extrafine Particle Mass <2 μm [2, 7]: 4.39 µg
Fine Particle Fraction [2, 7]: 67.2%
MMAD [2, 7]: 1.92 μm
Delivered Dose [2, 8]: 11.66 µg
Mid Fine Particle Mass [2, 9]: 3.46 µg
Mid Fine particle Fraction [2, 9]: 29.6%
Mid Fine particle Fraction ([2]; powder formulation of Example 2, between 2.0 and 5.0 micron, listed as glycopyrrolate): about 30%
Fine Particle Mass [2, 10]: 7.85 µg
Extrafine Particle Fraction <1 μm [2, 11]: 8.7%
Extrafine Particle Fraction <2 μm [2, 11]: 27.4%
Extrafine Particle Mass <1 μm [2, 11]: 1.75 µg
Extrafine Particle Mass <2 μm [2, 11]: 5.49 µg
Fine Particle Fraction [2, 11]: 57.1%
MMAD [2, 11]: 2.15 μm
Delivered Dose [2, 12]: 20.03 µg
Mid Fine Particle Mass [2, 13]: 5.94 µg
Mid Fine particle Fraction [2, 13]: 29.7%
Mid Fine particle Fraction ([2]; powder formulation of Example 3, between 2.0 and 5.0 micron, listed as glycopyrrolate): about 30%
Fine Particle Mass [2, 14]: 11.43 µg

O.OC[C@H]1O[C@@H](O[C@H]2[C@H](O)[C@@H](O)[C@@H](O)O[C@@H]2CO)[C@H](O)[C@@H](O)[C@H]1O [Micronized alpha-lactose monohydrate, alpha-lactose monohydrate]
particle size d(v0.1) [1]: 1.7 micron
particle size d(v0.5) [1]: 4.3 micron
particle size d(v0.9) [1]: 9.8 micron
